Measurements taken from ChEMBL document CHEMBL1153415, “Evaluation of antioxidant properties of monoaromatic derivatives of pulvinic acids” (J Med Chem, 2009).
Active and inactive are the calls of the source. The calls are words filed in the database; no cut-off is given here.

Legend:
[1] = Antioxidant activity against […]/EDTA/H2O2-induced pEGFPLuc plasmid DNA degradation assessed as remaining supercoiled DNA form at 125 uM by gel-electrophoresis; type: functional
CHO = test: Cytotoxicity against CHO cells at 10 to 100 uM by MTT assay relative to control; type: cell-based, Cricetulus griseus; details: chinese hamster
[2] = Antioxidant activity against UV/H2O2-induced thymidine degradation by thymidine protection assay; type: functional
[3] = Antioxidant activity against Fe/EDTA/H2O2-induced thymidine degradation by thymidine protection assay; type: functional
[4] = Antioxidant activity against superoxide radical assessed as trolox equivalents by luminol-enhanced chemiluminescence; type: functional
[5] = Antioxidant activity against UV/H2O2-induced thymidine degradation at 100 uM by thymidine protection assay; type: functional
[6] = Antioxidant activity against Fe/EDTA/H2O2-induced thymidine degradation at 100 uM by thymidine protection assay; type: functional

Row | SMILES | Activity [1] | Activity (CHO) | EC50 [2] [µM] | EC50 [3] [µM] | Activity [4] [µg] | Activity [5] | Activity [6]
1 | COC(=O)/C(C)=C1/OC(=O)C(c2ccccc2)=C1O | Active | Non-toxic | – | – | – | – | –
2 | COC(=O)/C(=C1/OC(O)=C(c2ccc(OC)cc2)C1=O)c1ccc(OC)cc1 | Active | Non-toxic | 90 | 109 | 54 | – | –
3 | COc1ccc(C2=C(O)/C(=C(/C)C(=O)OC(C)C)OC2=O)cc1 | Active | – | – | – | 105 | 27% | 37%
4 | COc1ccc(C2=C(O)/C(=C(/C)C(=O)N(C)OC)OC2=O)cc1 | Active | – | – | – | – | 30% | 37%
5 | COC(=O)/C(=C1/OC(=O)C(C)=C1O)c1ccccc1 | – | Non-toxic | 220 | 850 | – | – | –
6 | COC(=O)/C(C)=C1/OC(=O)C(/C=C/c2ccccc2)=C1O | Active | – | – | – | – | Active | Active
7 | COc1ccc(C2=C(O)/C(=C(/C)C(C)(C)O)OC2=O)cc1 | 40% | Non-toxic | 117 | 608 | – | – | –
8 | COC(=O)/C(=C1/OC(=O)C(C)=C1O)c1ccc(Br)cc1 | – | – | – | – | 87 | – | –
9 | COC(=O)/C(C)=C1/OC(=O)C(c2ccc(C(C)C)cc2)=C1O | Active | – | – | – | – | Active | Active
10 | CCCCNC(=O)/C(C)=C1/OC(=O)C(c2ccc(OC)cc2)=C1O | 40% | Non-toxic | 91 | 226 | 86 | 30% | 37%
11 | COC(=O)/C(=C1/OC(=O)C(C)=C1O)c1ccc(OC)cc1 | – | – | 175 | 971 | – | – | –
12 | COC(=O)/C(=C1/OC(=O)C(c2ccccc2)=C1O)c1ccccc1 | – | – | – | – | – | Active | Active
13 | COC(=O)/C(C)=C1/OC(=O)C(c2ccc(OC)cc2)=C1O | 40% | – | 130 | 196 | 141 | – | –
14 | COC(=O)/C(C)=C1/OC(=O)C(c2ccc(F)cc2)=C1O | Active | – | – | – | – | Active | Active
15 | COC(=O)/C(C)=C1/OC(=O)C(c2ccc(Br)cc2)=C1O | Active | Non-toxic | – | – | 113 | Active | Active
16 | COc1ccc(C2=C(O)/C(=C(/C)C(=O)NCCCN)OC2=O)cc1 | 40% | – | – | – | 81 | 30% | 37%
17 | COc1ccc(C2=C(O)/C(=C(/C)C(=O)N3CCOCC3)OC2=O)cc1 | Active | Non-toxic | – | – | 79 | 30% | 37%
18 | COc1ccc(/C(C(=O)OC(C)C)=C2\OC(=O)C(C)=C2O)cc1 | – | Non-toxic | – | – | 77 | – | –
